Molecules are shown by their SMILES.

This assay has as its target Coagulation factor XI (Homo sapiens, UniProt P03951). In words: Inhibition of human coagulation factor 11a pre-incubated for 15 mins before substrate S2366 addition and measured after 2 hrs post substrate addition.

Sequence of Coagulation factor XI (P03951 19-387 limits assumed): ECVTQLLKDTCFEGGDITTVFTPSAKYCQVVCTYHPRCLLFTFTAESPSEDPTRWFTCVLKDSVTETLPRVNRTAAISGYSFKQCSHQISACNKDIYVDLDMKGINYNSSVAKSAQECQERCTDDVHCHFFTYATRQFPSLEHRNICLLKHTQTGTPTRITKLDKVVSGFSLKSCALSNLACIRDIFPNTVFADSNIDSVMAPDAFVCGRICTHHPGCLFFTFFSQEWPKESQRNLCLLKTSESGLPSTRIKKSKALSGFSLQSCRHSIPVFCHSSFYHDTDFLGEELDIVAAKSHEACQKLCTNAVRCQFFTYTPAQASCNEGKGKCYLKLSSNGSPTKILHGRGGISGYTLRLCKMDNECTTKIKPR
Sequence of Coagulation factor XI (P03951 388-625 limits assumed): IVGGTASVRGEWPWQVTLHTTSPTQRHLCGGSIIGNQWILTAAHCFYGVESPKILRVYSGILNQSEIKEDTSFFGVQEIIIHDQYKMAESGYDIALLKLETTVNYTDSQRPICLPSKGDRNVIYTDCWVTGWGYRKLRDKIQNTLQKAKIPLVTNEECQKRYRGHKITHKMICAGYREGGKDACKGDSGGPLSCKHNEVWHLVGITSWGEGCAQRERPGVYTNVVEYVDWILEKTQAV

`N=C(N)NCCCCNC(=O)Oc1c(Br)cc(O)c(CC(=O)O)c1Br`: the IC50 was 6.3 µM.

The values are drawn from ChEMBL document CHEMBL3352591, “Total synthesis of clavatadine A” (J Nat Prod, 2015).
